Consider 6 compounds from patent publication US20240270821A1, “GIP/GLP1/GCG TRI-RECEPTOR AGONISTS AND USES THEREOF” (priority 2023, published 2024).

Holding throughout (format): cell-based
Assay [1] has as its target T1, hGLP-1R (Homo sapiens, UniProt P43220). Put plainly: Functional cAMP activation in the presence of 0.1% casein (no HSA). To be noted: in the presence of 0.1% casein (no HSA); geometric mean; read-out: Relative cAMP EC50, hGLP-1R.
Assay [2] deals with human GcgR (Homo sapiens, UniProt P47871). Put plainly: Functional cAMP activity in the presence of 1% HSA. To be noted: read-out: cAMP Rel EC50, hGcgR.
human GcgR, sequence (P47871 26-477): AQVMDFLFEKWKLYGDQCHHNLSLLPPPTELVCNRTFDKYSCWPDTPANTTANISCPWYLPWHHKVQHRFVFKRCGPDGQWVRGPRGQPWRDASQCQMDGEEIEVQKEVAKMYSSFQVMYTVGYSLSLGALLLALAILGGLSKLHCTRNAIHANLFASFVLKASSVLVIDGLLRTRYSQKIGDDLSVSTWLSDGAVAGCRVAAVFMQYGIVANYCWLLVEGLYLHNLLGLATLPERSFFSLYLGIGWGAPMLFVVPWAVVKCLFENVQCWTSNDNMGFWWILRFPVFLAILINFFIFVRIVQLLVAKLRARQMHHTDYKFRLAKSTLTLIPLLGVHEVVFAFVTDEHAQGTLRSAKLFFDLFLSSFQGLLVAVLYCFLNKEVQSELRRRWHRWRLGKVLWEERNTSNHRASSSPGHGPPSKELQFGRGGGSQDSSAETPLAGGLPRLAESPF
Assay [3] concerns the target T1, hGLP-1R. Put plainly: Functional cAMP activity in the presence of 1% HSA. Conditions: read-out: cAMP Rel EC50, hGLP-1R.
Assay [4] has as its target T2, hGIPR (Homo sapiens, UniProt P48546).
T2 sequence (P48546 22-466): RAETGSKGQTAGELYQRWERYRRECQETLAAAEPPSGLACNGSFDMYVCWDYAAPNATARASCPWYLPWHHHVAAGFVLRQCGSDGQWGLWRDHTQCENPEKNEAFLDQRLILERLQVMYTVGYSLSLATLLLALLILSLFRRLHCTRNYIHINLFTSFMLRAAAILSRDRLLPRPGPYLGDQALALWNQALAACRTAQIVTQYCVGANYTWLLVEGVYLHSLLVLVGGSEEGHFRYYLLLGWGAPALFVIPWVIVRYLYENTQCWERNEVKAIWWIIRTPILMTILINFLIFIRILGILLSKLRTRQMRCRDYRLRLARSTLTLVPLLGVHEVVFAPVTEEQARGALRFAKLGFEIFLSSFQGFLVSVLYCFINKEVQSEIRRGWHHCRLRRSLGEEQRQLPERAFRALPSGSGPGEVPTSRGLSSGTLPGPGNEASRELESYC
Put plainly: Functional cAMP activity in the presence of 1% HSA. Conditions: read-out: cAMP Rel EC50, hGIPR.

The target of assay [5] is hGcgR (Homo sapiens, UniProt P47871). Put plainly: Functional cAMP activation in the presence of 0.1% casein (no HSA). Conditions: in the presence of 0.1% casein (no HSA); geometric mean; read-out: Relative cAMP EC50, hGcgR.
hGcgR, sequence (P47871 26-477): as the sequence (P47871 26-477) above
Assay [6] addresses T2, hGIPR. The assay is described as above. To be noted: in the presence of 0.1% casein (no HSA); geometric mean; read-out: Relative cAMP EC50, hGIPR.
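Wherever Relative cAMP EC50, hGIPR is given: intracellular cAMP rise after 30 min at 37 °C read by HTRF against a standard curve, scaled between buffer alone (0%) and top control ligand concentration (100%), four-parameter fit.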
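Wherever Relative cAMP EC50, hGLP-1R is given: intracellular cAMP rise after 30 min at 37 °C read by HTRF, normalized between buffer only (0%) and maximal control ligand (100%), four-parameter variable-slope fit.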
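Wherever Relative cAMP EC50, hGcgR is given: intracellular cAMP rise after 30 min at 37 °C, read by HTRF against a cAMP standard curve, scaled from buffer only (0%) to maximal control ligand response (100%).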

T1 sequence (P43220 24-463): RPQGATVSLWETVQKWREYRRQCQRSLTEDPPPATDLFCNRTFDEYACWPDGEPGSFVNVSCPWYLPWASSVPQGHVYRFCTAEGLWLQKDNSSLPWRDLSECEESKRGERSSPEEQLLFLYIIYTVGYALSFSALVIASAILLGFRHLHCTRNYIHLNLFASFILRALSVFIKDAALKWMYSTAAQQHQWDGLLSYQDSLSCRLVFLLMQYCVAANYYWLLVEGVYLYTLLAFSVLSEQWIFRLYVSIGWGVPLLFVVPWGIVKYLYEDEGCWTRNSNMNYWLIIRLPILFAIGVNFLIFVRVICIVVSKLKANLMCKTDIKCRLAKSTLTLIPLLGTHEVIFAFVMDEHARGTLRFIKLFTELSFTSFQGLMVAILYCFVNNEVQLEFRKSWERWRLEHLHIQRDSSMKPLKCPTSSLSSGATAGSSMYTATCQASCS

For the compound `CC[C@H](C)[C@H](NC(=O)[C@H](Cc1ccccc1)NC(=O)[C@H](C)NC(=O)C(C)(C)NC(=O)[C@H](CCC(N)=O)NC(=O)[C@H](C)NC(=O)[C@H](CCCCNC(=O)COCCOCCNC(=O)COCCOCCNC(=O)CC[C@H](NC(=O)CCCCCCCCCCCCCCCCC(=O)O)C(=O)O)NC(=O)[C@H](CCCCN)NC(=O)[C@H](CC(=O)O)NC(=O)[C@H](CC(C)C)NC(=O)[C@](C)(CC(C)C)NC(=O)[C@H](CCCCN)NC(=O)[C@H](CO)NC(=O)[C@H](Cc1ccccc1)NC(=O)[C@H](CC(=O)O)NC(=O)[C@H](CO)NC(=O)[C@@H](NC(=O)[C@H](Cc1ccccc1)NC(=O)[C@@H](NC(=O)CNC(=O)[C@H](CCC(N)=O)NC(=O)C(C)(C)NC(=O)[C@@H](N)Cc1ccc(O)cc1)[C@@H](C)O)[C@@H](C)O)C(=O)N[C@@H](CCC(=O)O)C(=O)N[C@@H](Cc1ccc(O)cc1)C(=O)N[C@@H](CC(C)C)C(=O)N[C@@H](CC(C)C)C(=O)N[C@@H](C)C(=O)NCC(=O)NCC(=O)N1CCC[C@H]1C(=O)N[C@@H](CO)C(=O)N[C@@H](CO)C(=O)NCC(=O)N[C@@H](CCC(=O)O)C(=O)N1CCC[C@H]1C(=O)N1CCC[C@H]1C(=O)N1CCC[C@H]1C(=O)N[C@@H](CO)C(=O)N[C@@H](CCC(=O)O)C(=O)NCC(N)=O` [Example 25], the EC50 (in general, the midpoint of the concentration-response curve) in assay [1] amounted to 3.34 nM; in assay [2], 939 nM; in assay [3], 520 nM; in assay [4], 19.8 nM; in assay [5], 6.8 nM; in assay [6], 0.128 nM.
As to `CC[C@H](C)[C@H](NC(=O)[C@H](Cc1ccccc1)NC(=O)[C@H](CCC(N)=O)NC(=O)C(C)(C)NC(=O)[C@H](CCC(N)=O)NC(=O)[C@H](C)NC(=O)[C@H](CCCCNC(=O)COCCOCCNC(=O)CC[C@H](NC(=O)CCCCCCCCCCCCCCCCCCC(=O)O)C(=O)O)NC(=O)[C@H](CCCCN)NC(=O)[C@H](CC(=O)O)NC(=O)[C@H](CC(C)C)NC(=O)[C@](C)(CC(C)C)NC(=O)[C@H](CCCCN)NC(=O)[C@H](CO)NC(=O)[C@H](Cc1ccccc1)NC(=O)[C@H](CC(=O)O)NC(=O)[C@H](CO)NC(=O)[C@@H](NC(=O)[C@H](Cc1ccccc1)NC(=O)[C@@H](NC(=O)CNC(=O)[C@H](CCC(N)=O)NC(=O)C(C)(C)NC(=O)[C@@H](N)Cc1ccc(O)cc1)[C@@H](C)O)[C@@H](C)O)C(=O)N[C@@H](CCC(=O)O)C(=O)N[C@@H](Cc1c[nH]c2ccccc12)C(=O)N[C@@H](CC(C)C)C(=O)N[C@@H](CC(C)C)C(=O)N[C@@H](CCC(=O)O)C(=O)NCC(=O)NCC(=O)N1CCC[C@H]1C(=O)N[C@@H](CO)C(=O)N[C@@H](CO)C(=O)NCC(=O)N[C@@H](C)C(=O)N1CCC[C@H]1C(=O)N1CCC[C@H]1C(=O)N1CCC[C@H]1C(=O)N[C@@H](CO)C(=O)N[C@@H](CCC(=O)O)C(=O)NCC(N)=O` [Example 38], the 50% effective concentration (EC50) in assay [2] was found to be 2770 nM; in assay [3], 884 nM; in assay [4], 102 nM; in assay [5] it was 9.5 nM; in assay [6], 0.304 nM.
For the compound `CC[C@H](C)[C@H](NC(=O)[C@H](Cc1ccccc1)NC(=O)[C@H](C)NC(=O)C(C)(C)NC(=O)[C@H](CCC(N)=O)NC(=O)[C@H](C)NC(=O)[C@H](CCCCNC(=O)COCCOCCNC(=O)COCCOCCNC(=O)CC[C@H](NC(=O)CCCCCCCCCCCCCCCCCCC(=O)O)C(=O)O)NC(=O)[C@H](CCCCN)NC(=O)[C@H](CC(=O)O)NC(=O)[C@H](CC(C)C)NC(=O)[C@](C)(CC(C)C)NC(=O)[C@H](CCCN)NC(=O)[C@H](CO)NC(=O)[C@H](Cc1ccccc1)NC(=O)[C@H](CC(=O)O)NC(=O)[C@H](CO)NC(=O)[C@@H](NC(=O)[C@H](Cc1ccccc1)NC(=O)[C@@H](NC(=O)CNC(=O)[C@H](CCC(N)=O)NC(=O)C(C)(C)NC(=O)[C@@H](N)Cc1ccc(O)cc1)[C@@H](C)O)[C@@H](C)O)C(=O)N[C@@H](CCC(=O)O)C(=O)N[C@@H](Cc1ccc(O)cc1)C(=O)N[C@@H](CC(C)C)C(=O)N[C@@H](CC(C)C)C(=O)N[C@@H](CCC(=O)O)C(=O)N[C@H](C)C(=O)NCC(=O)N1CCC[C@H]1C(=O)N[C@@H](CO)C(=O)N[C@@H](CO)C(=O)NCC(=O)N[C@@H](C)C(=O)N1CCC[C@H]1C(=O)N1CCC[C@H]1C(=O)N1CCC[C@H]1C(=O)N[C@@H](CO)C(=O)N[C@@H](CCC(=O)O)C(=O)NCC(N)=O` [Example 72], the EC50 in assay [1] came out at 1.86 nM; in assay [2] it was 1910 nM; in assay [3] it was 683 nM; in assay [4] it was 56.7 nM; in assay [5], 5.48 nM; in assay [6], 0.202 nM.
On to `CC[C@H](C)[C@H](NC(=O)[C@H](Cc1ccccc1)NC(=O)[C@H](C)NC(=O)C(C)(C)NC(=O)[C@H](CCC(N)=O)NC(=O)[C@H](C)NC(=O)[C@H](CCCCNC(=O)COCCOCCNC(=O)CC[C@H](NC(=O)CCCCCCCCCCCCCCCCCCC(=O)O)C(=O)O)NC(=O)[C@H](CCCCN)NC(=O)[C@H](CC(=O)O)NC(=O)[C@H](CC(C)C)NC(=O)[C@](C)(CC(C)C)NC(=O)[C@H](CCCN)NC(=O)[C@H](CO)NC(=O)[C@H](Cc1ccccc1)NC(=O)[C@H](CC(=O)O)NC(=O)[C@H](CO)NC(=O)[C@@H](NC(=O)[C@H](Cc1ccccc1)NC(=O)[C@@H](NC(=O)CNC(=O)[C@H](CCC(N)=O)NC(=O)C(C)(C)NC(=O)[C@@H](N)Cc1ccc(O)cc1)[C@@H](C)O)[C@@H](C)O)C(=O)N[C@@H](CCC(=O)O)C(=O)N[C@@H](Cc1c[nH]c2ccccc12)C(=O)N[C@@H](CC(C)C)C(=O)N[C@@H](CC(C)C)C(=O)N[C@@H](CCC(=O)O)C(=O)NCC(=O)NCC(=O)N1CCC[C@H]1C(=O)N[C@@H](CO)C(=O)N[C@@H](CO)C(=O)NCC(=O)N[C@@H](C)C(=O)N1CCC[C@H]1C(=O)N1CCC[C@H]1C(=O)N1CCC[C@H]1C(=O)N[C@@H](CO)C(=O)NCC(=O)N[C@@H](CCC(=O)O)C(N)=O` [Example 100], for which the half-maximal effective concentration (EC50) in assay [1] turned out to be 3.21 nM; in assay [2], 2390 nM; in assay [3], 1190 nM; in assay [4], 77.2 nM; in assay [5], 13.1 nM; in assay [6], 0.293 nM.
On to `CC[C@H](C)[C@H](NC(=O)[C@H](CC(C)C)NC(=O)[C@H](Cc1ccc(O)cc1)NC(=O)[C@H](CCC(=O)O)NC(=O)[C@@H](NC(=O)[C@H](Cc1ccccc1)NC(=O)[C@H](C)NC(=O)[C@](C)(Cc1ccncc1)NC(=O)[C@H](CCC(N)=O)NC(=O)[C@H](C)NC(=O)[C@H](CCCCNC(=O)COCCOCCNC(=O)CC[C@H](NC(=O)CCCCCCCCCCCCCCCCC(=O)O)C(=O)O)NC(=O)[C@H](CCCCN)NC(=O)[C@H](CC(=O)O)NC(=O)[C@H](CC(C)C)NC(=O)[C@](C)(CC(C)C)NC(=O)[C@H](CCCN)NC(=O)[C@H](CO)NC(=O)[C@H](Cc1ccncc1)NC(=O)[C@H](CC(=O)O)NC(=O)[C@H](CO)NC(=O)[C@@H](NC(=O)[C@H](Cc1ccccc1)NC(=O)[C@@H](NC(=O)CNC(=O)[C@H](CCC(N)=O)NC(=O)C(C)(C)NC(=O)[C@@H](N)Cc1ccc(O)cc1)[C@@H](C)O)[C@@H](C)O)[C@@H](C)CC)C(=O)N[C@@H](CCC(=O)O)C(=O)NCC(=O)NCC(=O)N[C@@H](CCC(=O)O)C(=O)N[C@@H](CO)C(=O)N[C@@H](CO)C(=O)NCC(=O)N[C@@H](C)C(=O)N1CCC[C@H]1C(=O)N1CCC[C@H]1C(=O)N1CCC[C@H]1C(=O)N[C@@H](CO)C(=O)NCC(=O)N[C@@H](CO)C(N)=O` [Example 791], for which the EC50 in assay [2] worked out at 456 nM; in assay [3], 980 nM; in assay [4], 143 nM; in assay [5], 2.36 nM; in assay [6] it was 0.979 nM.
Regarding `CC[C@H](C)[C@H](NC(=O)[C@H](Cc1ccccc1)NC(=O)[C@H](C)NC(=O)[C@](C)(Cc1ccncc1)NC(=O)[C@H](CCC(N)=O)NC(=O)[C@H](C)NC(=O)[C@H](CCCCNC(=O)CC[C@H](NC(=O)CC[C@H](NC(=O)CCCCCCCCCCCCCCCCC(=O)O)C(=O)O)C(=O)O)NC(=O)[C@H](CCCN)NC(=O)[C@H](CC(=O)O)NC(=O)[C@H](CC(C)C)NC(=O)[C@](C)(CC(C)C)NC(=O)[C@H](CCC(N)=O)NC(=O)[C@H](CO)NC(=O)[C@H](Cc1ccncc1)NC(=O)[C@H](CC(=O)O)NC(=O)[C@H](CO)NC(=O)[C@@H](NC(=O)[C@H](Cc1ccccc1)NC(=O)[C@@H](NC(=O)CNC(=O)[C@H](CCC(N)=O)NC(=O)C(C)(C)NC(=O)[C@@H](N)Cc1ccc(O)cc1)[C@@H](C)O)[C@@H](C)O)C(=O)N[C@@H](CCC(=O)O)C(=O)N[C@@H](Cc1ccc(O)cc1)C(=O)N[C@@H](CC(C)C)C(=O)N[C@H](C(=O)N[C@@H](CCC(=O)O)C(=O)N[C@H](C)C(=O)NCC(=O)N1CCC[C@H]1C(=O)N[C@@H](CO)C(=O)N[C@@H](CO)C(=O)NCC(=O)N[C@@H](C)C(=O)N1CCC[C@H]1C(=O)N1CCC[C@H]1C(=O)N1CCC[C@H]1C(=O)N[C@@H](CCC(=O)O)C(=O)NCC(=O)N[C@@H](CO)C(N)=O)[C@@H](C)CC` [Example 1021], the concentration for a half-maximal effect (EC50) worked out at 1.3 nM in assay [1]; 588 nM in assay [2]; 174 nM in assay [3]; 4.39 nM in assay [5]; 0.22 nM in assay [6].
